The numbers were not newly measured in PMC8198792, “Prediction of Anticancer Peptides with High Efficacy and Low Toxicity by Hybrid Model Based on 3D Structure of Peptides” (International Journal of Molecular Sciences, 2021), which cites them from elsewhere.

Read-outs that look alike come from different tables or passages of the source.

For data set [1], the system named is many types of cells, including non-cancer cells. Particulars: toxic peptides dataset TD2; class label 1 (toxic, positive set) or 0 (non-toxic AMP, negative set); ref SATPdb; cited from earlier work.
Another data set deals with cancer cell lines. Details: method as in 6 sources, ref CancerPPD [45] and SATPdb ||| ref CancerPPD/SATPdb ||| ref CancerPPD, SATPdb, Swissprot (PDB) ||| ref CancerPPD/SATPdb/Swissprot(PDB) ||| ref CancerPPD / SATPdb ||| ... Particulars: cited from earlier work. The text has this: Supplement ijms-22-05630-s001.zip/ACPs(seguence).xlsx, sheet "D1" | column: Activity || Supplement ijms-22-05630-s001.zip/ACPs(seguence).xlsx, sheet "D2" | column: Activity || Supplement ijms-22-05630-s001.zip/ACPs(seguence).xlsx, sheet "D3" | column: Activity || (+ 2 further places)

The next data set relates to erythrocytes. Particulars: cited from earlier work. The text has this: Supplement ijms-22-05630-s001.zip/Hemloytic Peptides(seguence).xlsx, sheet "HD1" | column: Activity || Supplement ijms-22-05630-s001.zip/Hemloytic Peptides(seguence).xlsx, sheet "HD2" | column: Activity || Supplement ijms-22-05630-s001.zip/Hemloytic Peptides(seguence).xlsx, sheet "HD3" | column: Activity

Where [2] appears, read: ACPs dataset D1, label 1 = ACP, 0 = non-ACP (non-anticancer AMPs from SATPdb), ref CancerPPD/SATPdb.
Where [3] appears, read: ACPs dataset D4 (sheet "D4"), label 1 = ACP, 0 = non-ACP, ref CancerPPD / SATPdb.
Setting [4] is: ACPs dataset D3 (supplement sheet "D3"), 1 = ACP, 0 = non-ACP, ref CancerPPD [45] and SATPdb.
Setting [5] is: ACPs dataset D5, sheet "D5", label 1 = ACP, 0 = non-ACP, ref CancerPPD [45] and SATPdb.
Where [6] appears, read: ACPs dataset D3 (sheet "D3"), label 1 = ACP, 0 = non-ACP, ref CancerPPD/SATPdb.
Where [7] appears, read: ACPs dataset D4 (sheet "D4"), label 1 = ACP (CancerPPD ID), 0 = non-ACP (non-anticancer AMP, SATPdb ID), ref CancerPPD [45] and SATPdb.
Setting [8] is: Hemolytic peptides dataset HD2, label 1 = hemolytic, 0 = non-hemolytic, ref Hemolytik/SATPdb.
Setting [9] is: hemolytic peptides dataset HD3, 1 = hemolytic (positive set), 0 = non-hemolytic (negative set), labels taken from databases, ref Hemolytik/SATPdb.
Setting [10] is: ACPs dataset D1, 1 = ACP (positive), 0 = non-ACP (negative), label taken from databases, ref CancerPPD [45] and SATPdb.
The mark [11] stands for this setting: natural hemolytic peptide dataset HD1, label collected from databases, ref Hemolytik [49], SATPdb [34].

On to VDIHVWD*GV [satpdb19274], for which the Activity in data set [1] is 1.
With LGPALITRKPLKGKP [satpdb17072], the Activity in data set [1] is 0.
Regarding GLKDIFKAGLGSLVKNIAAHVAN [satpdb11475], the Activity in data set [1] is 0.
Take FIPLVSGLFSRLL [satpdb15094]: the Activity in data set [1] is listed as 0.
Turning to “RRIPRPILLPWRPPRPIPRPQPQPIPRWL [satpdb15488]”, the Activity in data set [1] is reported as 0.
On to FFPLLFGALSSHLPKLF [satpdb16485], for which the Activity in data set [1] is given as 1.
As for SLSRFLSFLKIVYPPAF [satpdb15130], the Activity in data set [1] is recorded as 0.
In the case of FFGAIAAALPHVISAIKNAL [satpdb28842], the Activity in data set [1] is 1.
Regarding IIGAIAAALPHVINAIKNTF [satpdb19948], the Activity in data set [1] is listed as 1.
Turning to “GLVTSLIKGAGKLLGGLFGSVTGGQS [satpdb13110]”, the figures for the Activity in the data set on cancer cell lines (setting [2]), with cancer cell lines (setting [3]) and in the data set on erythrocytes were 0, 0 and 1, respectively. Besides, in the data set on erythrocytes, the “Activity (dataset HD1, hemolytic 1 / non-hemolytic 0)” value was 1.
Turning to FLPLIGRVLSGIA [satpdb10103], the Activity is 0 in the data set on cancer cell lines (setting [4]), 0 in the data set with cancer cell lines (setting [3]), 0 in the data set on cancer cell lines (setting [5]) and 1 with erythrocytes.
Consider ILPWKWPKLPWRR [satpdb13392], for which the Activity in the data set on cancer cell lines (setting [6]), in the data set with cancer cell lines (setting [3]), in the data set on cancer cell lines (setting [5]) and in the data set on erythrocytes was 0 in each case.
Regarding FLPLIGAVLSGIL [satpdb13723], the Activity in the data set on cancer cell lines (setting [6]) is 0; in the data set with cancer cell lines (setting [3]) it was 0; in the data set with cancer cell lines (setting [5]), 0; in the data set on erythrocytes, 1.
Consider DVNDLKNLCAKTHNLLPMCAMF [satpdb13885], for which the Activity in the data set on cancer cell lines (setting [6]), with cancer cell lines (setting [3]), in the data set with cancer cell lines (setting [5]) and with erythrocytes was 0 each time.
Turning to KWFKKIPKFLHLAKKF [compound 1150], the Activity in the data set with cancer cell lines (setting [4]) is 1; in the data set with cancer cell lines (setting [7]), 1; in the data set with cancer cell lines (ACPs dataset D5 (sheet "D5"), label 1 = ACP (positive set), 0 = non-ACP (negative set), ref CancerPPD [45] and SATPdb) it was 1; with erythrocytes (setting [8]), 1; in the data set with erythrocytes (setting [9]), 1.
As to “GLGSLLGKAFKIGLKTVGKMMGGAPREQ [satpdb12448]”, the results for the Activity in the data set on cancer cell lines (setting [2]), with cancer cell lines (setting [7]) and with erythrocytes were 0, 0 and 1, respectively. Also, the “Activity (dataset HD1, hemolytic 1 / non-hemolytic 0)” value in the data set with erythrocytes is 1.
Take ILPFKFPFPFRR [satpdb12286]: the Activity is on record as 0 in the data set on cancer cell lines (setting [6]), 0 in the data set with cancer cell lines (setting [3]), 0 with cancer cell lines (setting [5]) and 1 in the data set on erythrocytes.
As to “GIGAVLK*VLTTGLpALISWIK*RK*RQQ [satpdb13686]”, the Activity with cancer cell lines (setting [6]) was 0; in the data set with cancer cell lines (setting [3]) it was 0; with cancer cell lines (setting [5]), 0; in the data set on erythrocytes (setting [8]) it was 1; in the data set on erythrocytes (setting [9]), 1.
With VKLKVyPLKVKLyP [satpdb10236], the Activity is recorded as 0 in the data set on cancer cell lines (setting [4]), 0 with cancer cell lines (setting [3]), 0 in the data set on cancer cell lines (setting [5]) and 1 with erythrocytes.
As to KNLRRIIRKGIHIIKKYF [satpdb11799], the Activity in the data set with cancer cell lines (setting [2]) was 0; with cancer cell lines (setting [7]), 0; in the data set on erythrocytes, 1. In the data set on erythrocytes, the “Activity (dataset HD1, hemolytic 1 / non-hemolytic 0)” value was 1.
On to “GLWDTIKQAGKKFFLNVLDKIRCKVAGGCRT [satpdb11099]”, for which the Activity is listed as 0 with cancer cell lines (setting [10]), 0 with cancer cell lines (setting [7]) and 1 with erythrocytes (setting [9]). For the same substance, the “Activity (dataset HD1, hemolytic 1 / non-hemolytic 0)” value in the data set with erythrocytes (setting [11]) was 1.
As for KKKLLLLLLLLLKKK [satpdb10761], the Activity in the data set with cancer cell lines (setting [4]) is on record as 0; with cancer cell lines (setting [3]) it was 0; in the data set with cancer cell lines (setting [5]), 0; in the data set with erythrocytes (setting [8]), 1; in the data set with erythrocytes (setting [9]), 1.
With VFQFLGKIIHHVGNFVHGFSHVF [satpdb12167], the Activity is given as 0 in the data set on cancer cell lines (setting [2]), 0 in the data set on cancer cell lines (setting [7]) and 1 in the data set on erythrocytes (setting [9]). Moreover, the “Activity (dataset HD1, hemolytic 1 / non-hemolytic 0)” value in the data set on erythrocytes (setting [11]) is recorded as 1.
With LLIILKKKWKKQAKAKSK [satpdb13450], the Activity with cancer cell lines (setting [6]) is 0; in the data set on cancer cell lines (setting [3]), 0; in the data set on cancer cell lines (setting [5]), 0; in the data set with erythrocytes (setting [8]) it was 1; in the data set with erythrocytes (setting [9]), 1.
FIGAIARLLSKIF [satpdb13222]: the Activity in the data set with cancer cell lines (setting [2]) was 0; with cancer cell lines (setting [3]), 0; in the data set on erythrocytes (setting [9]) it was 1. In addition, the “Activity (dataset HD1, hemolytic 1 / non-hemolytic 0)” value in the data set with erythrocytes (setting [11]) is 1.
For the substance LLIILRRRWRRQARARSR [satpdb11798], the Activity is reported as 0 in the data set with cancer cell lines (setting [4]), 0 with cancer cell lines (setting [3]), 0 in the data set on cancer cell lines (setting [5]) and 1 in the data set on erythrocytes.
On to KWKKLLKKPLKLLKKLLK [satpdb12290], for which the Activity in the data set on cancer cell lines (setting [6]) was 0; with cancer cell lines (setting [3]) it was 0; in the data set with cancer cell lines (setting [5]) it was 0; in the data set on erythrocytes it was 1.
Regarding LLIILRRRWRKQARARSK [satpdb13104], the Activity was 0 with cancer cell lines (setting [6]), 0 with cancer cell lines (setting [3]), 0 in the data set on cancer cell lines (setting [5]) and 1 in the data set on erythrocytes.
Turning to AKKVFKRLGIGAVLWVLTWG [satpdb10183], the Activity in the data set on cancer cell lines (setting [10]) is given as 0; with cancer cell lines (setting [7]) it was 0; in the data set on erythrocytes (setting [9]), 1. In addition, the “Activity (dataset HD1, hemolytic 1 / non-hemolytic 0)” value in the data set on erythrocytes (setting [11]) is reported as 1.
Consider FLPAIAGILSQLF [satpdb10431], for which the Activity in the data set on cancer cell lines (setting [4]) is listed as 0; in the data set with cancer cell lines (setting [3]), 0; in the data set with cancer cell lines (setting [5]) it was 0; in the data set with erythrocytes, 1.
For the substance GLLGPLLKIAAKVGKKLL [satpdb11754], the Activity in the data set with cancer cell lines (setting [4]) is 0; in the data set with cancer cell lines (setting [3]), 0; in the data set on cancer cell lines (setting [5]), 0; in the data set on erythrocytes, 1.
For the substance FKCKKVVISLRRY [satpdb11913], the Activity in the data set with cancer cell lines (setting [2]), in the data set on cancer cell lines (setting [7]) and in the data set on erythrocytes (setting [9]) was 0 each time. Moreover, the “Activity (dataset HD1, hemolytic 1 / non-hemolytic 0)” value in the data set with erythrocytes (setting [11]) is on record as 0.
Take FLPLIGRVLSGAL [satpdb13300]: the Activity in the data set on cancer cell lines (setting [6]) was 0; in the data set with cancer cell lines (setting [3]), 0; with cancer cell lines (setting [5]), 0; in the data set on erythrocytes it was 1.
Take VKLKVyPLKvKLyP [satpdb12258]: the Activity in the data set on cancer cell lines (setting [6]) is listed as 0; with cancer cell lines (setting [3]), 0; in the data set on cancer cell lines (setting [5]), 0; in the data set on erythrocytes (setting [8]), 1; in the data set on erythrocytes (setting [9]), 1.
As for GKKLLKKLKKLLKKW [satpdb10586], the Activity in the data set with cancer cell lines (setting [4]) was 0; in the data set with cancer cell lines (setting [3]), 0; with cancer cell lines (setting [5]) it was 0; with erythrocytes, 1.
Regarding GLLSGILGAGKQKVCGLSGLC [satpdb12339], the Activity is 0 in the data set on cancer cell lines (setting [2]), 0 in the data set on cancer cell lines (setting [7]) and 1 in the data set with erythrocytes. Further, the “Activity (dataset HD1, hemolytic 1 / non-hemolytic 0)” value with erythrocytes is listed as 1.
As to “GRFKRFRKKFKKLFKKLSPVIPLLHL [satpdb13682]”, the Activity in the data set on cancer cell lines (setting [6]) is 0; with cancer cell lines (setting [3]), 0; in the data set with cancer cell lines (setting [5]), 0; in the data set with erythrocytes it was 1.
As for ILPWKWPWWPWRR [satpdb10356], the Activity with cancer cell lines (setting [4]) is 0; in the data set with cancer cell lines (setting [3]) it was 0; in the data set with cancer cell lines (setting [5]), 0; with erythrocytes (setting [8]), 1; with erythrocytes (setting [9]), 1.
As to KKVVFKVKFKK [satpdb13401], the Activity in the data set with cancer cell lines (setting [6]), in the data set with cancer cell lines (setting [3]), with cancer cell lines (setting [5]) and in the data set with erythrocytes was 0 each time.
In the case of “VCGETCFGGTCNTPGCSCTWPICTRDGLP [satpdb10452]”, the Activity in the data set on cancer cell lines (setting [2]) is 0; in the data set with cancer cell lines (setting [7]), 0; with erythrocytes (setting [9]), 1. Besides, the “Activity (dataset HD1, hemolytic 1 / non-hemolytic 0)” value in the data set on erythrocytes (setting [11]) is listed as 1.
